Data as given in the supplement of paper PMC10307832.

What was measured:
Experiment in all cases: relative viability (nuclei count vs DMSO), 5 days (fraction); higher = more cells survive
AZD8055 = compound: COc1ccc(-c2ccc3c(N4CCOC[C@@H]4C)nc(N4CCOC[C@@H]4C)nc3n2)cc1CO [AZD8055]
Method in brief: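 Cells of lung cancer lines were placed in 1536-well plates and kept overnight at 37 °C. Pinning then delivered five library-drug doses (not always all listed), spaced by √10, onto plates anchored with vehicle, and the cells were left 5 days without changing medium. One step fixed, permeabilised and stained them with Hoechst, and MetaXpress counted nuclei in 4× images. Viability, as a median over plates, is treated-well nuclei divided by vehicle-well nuclei, with acceptance only at control CV below 25% and at least one doubling.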

AZD8055 + Navitoclax = compound: COc1ccc(-c2ccc3c(N4CCOC[C@@H]4C)nc(N4CCOC[C@@H]4C)nc3n2)cc1CO [AZD8055] + CC1(C)CCC(c2ccc(Cl)cc2)=C(CN2CCN(c3ccc(C(=O)NS(=O)(=O)c4ccc(N[C@H](CCN5CCOCC5)CSc5ccccc5)c(S(=O)(=O)C(F)(F)F)c4)cc3)CC2)C1 [Navitoclax] (partner 0.5 µM)
Method in brief: (§1)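 Dosing by pin tool came one day after lung cancer cell lines were seeded in 1536-well plates, using either one drug or a fixed anchor-drug dose plus five library-drug doses (not always all listed) in √10 steps. After 5 days, nuclei were counted on 4× images. Relative viability is treated-well nuclei count divided by vehicle-well nuclei count, and values are medians of duplicate plates.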

AZD8055 + Tozasertib = compound: COc1ccc(-c2ccc3c(N4CCOC[C@@H]4C)nc(N4CCOC[C@@H]4C)nc3n2)cc1CO [AZD8055] + Cc1cc(Nc2cc(N3CCN(C)CC3)nc(Sc3ccc(NC(=O)C4CC4)cc3)n2)n[nH]1 [Tozasertib] (partner 0.1 µM)
Method in brief: as §1

AZD8055 + Phenformin = compound: COc1ccc(-c2ccc3c(N4CCOC[C@@H]4C)nc(N4CCOC[C@@H]4C)nc3n2)cc1CO [AZD8055] + N=C(N)NC(=N)NCCc1ccccc1 [Phenformin] (partner 250 µM)
Method in brief: as §1

Cell Line	relative viability (AZD8055; 0.01 µM)	relative viability (AZD8055; 0.03162 µM)	relative viability (AZD8055; 0.1 µM)	relative viability (AZD8055; 0.3162 µM)	relative viability (AZD8055; 1 µM)	relative viability (AZD8055 + Navitoclax; first compound 0.01 µM)	relative viability (AZD8055 + Navitoclax; first compound 0.03162 µM)	relative viability (AZD8055 + Navitoclax; first compound 0.1 µM)	relative viability (AZD8055 + Navitoclax; first compound 0.3162 µM)	relative viability (AZD8055 + Navitoclax; first compound 1 µM)	relative viability (AZD8055 + Tozasertib; first compound 0.01 µM)	relative viability (AZD8055 + Tozasertib; first compound 0.03162 µM)	relative viability (AZD8055 + Tozasertib; first compound 0.1 µM)	relative viability (AZD8055 + Tozasertib; first compound 0.3162 µM)	relative viability (AZD8055 + Tozasertib; first compound 1 µM)	relative viability (AZD8055 + Phenformin; first compound 0.01 µM)	relative viability (AZD8055 + Phenformin; first compound 0.03162 µM)	relative viability (AZD8055 + Phenformin; first compound 0.1 µM)	relative viability (AZD8055 + Phenformin; first compound 0.3162 µM)	relative viability (AZD8055 + Phenformin; first compound 1 µM)
NCI-H1437	1.05	1.02	0.895	0.448	0.318	1.23	1.09	0.921	0.344	0.213	0.437	0.458	0.496	0.373	0.238	0.315	0.299	0.301	0.206	0.203
NCI-H1650	0.923	1	0.802	0.498	0.419	1.01	1.15	1.07	0.519	0.502	0.366	0.446	0.422	0.534	0.252	0.534	0.518	0.383	0.288	0.266
NCI-H1651	1.08	0.847	0.871	0.61	0.389	1.08	0.879	0.622	0.52	0.282	0.695	0.64	0.694	0.414	0.317	0.323	0.318	0.329	0.261	0.232
NCI-H1666	1.1	1.07	0.925	0.802	0.675	0.878	0.819	0.731	0.561	0.417	0.623	0.862	0.589	0.523	0.51	0.619	0.553	0.584	0.542	0.488
NCI-H1734	1.08	0.732	0.646	0.385	0.276	1.04	0.742	0.472	0.316	0.173	0.234	0.26	0.23	0.194	0.196	0.417	0.288	0.264	0.176	0.194
NCI-H1755	1.02	0.841	0.825	0.537	0.569	0.953	0.71	0.687	0.296	0.307	0.551	0.555	0.449	0.429	0.437	0.609	0.594	0.541	0.463	0.474
NCI-H1793	0.669	0.443	0.287	0.212	0.222	0.363	0.288	0.205	0.229	0.163	0.299	0.219	0.154	0.136	0.145	0.405	0.272	0.196	0.203	0.207
NCI-H1915	1.01	0.81	0.959	0.63	0.513	0.853	0.769	0.81	0.757	0.509	0.533	0.433	0.46	0.387	0.35	0.373	0.348	0.356	0.364	0.302
NCI-H1944	1.01	0.786	0.673	0.335	0.316	1.05	0.929	0.851	0.457	0.316	0.243	0.253	0.206	0.171	0.166	0.193	0.2	0.187	0.148	0.129
NCI-H1975	1.05	0.812	0.55	0.347	0.283	0.967	0.91	0.802	0.279	0.247	0.804	0.619	0.375	0.189	0.178	0.369	0.309	0.233	0.172	0.174
NCI-H1993	0.791	0.72	0.577	0.545	0.666	0.785	0.681	0.649	0.665	0.56	0.55	0.534	0.518	0.47	0.526	0.509	0.469	0.529	0.49	0.576
NCI-H2009	1.03	0.918	0.924	0.501	0.344	1.11	1.14	1.04	0.553	0.323	0.763	0.735	0.723	0.535	0.279	0.508	0.455	0.486	0.294	0.228
NCI-H2023	0.901	0.618	0.362	0.163	0.153	0.951	0.871	0.598	0.249	0.181	0.314	0.325	0.258	0.115	0.109	0.463	0.326	0.293	0.138	0.13
NCI-H2085	1	0.987	0.723	0.43	0.42	1.11	0.945	0.672	0.417	0.33	0.775	0.759	0.703	0.388	0.338	0.739	0.67	0.417	0.34	0.314
NCI-H2087	1.14	0.908	0.936	0.458	0.349	0.911	0.951	0.703	0.421	0.309	0.276	0.242	0.2	0.189	0.162	0.555	0.41	0.422	0.242	0.232
NCI-H2126	0.973	0.926	0.743	0.515	0.418	0.801	0.763	0.641	0.487	0.345	0.844	0.829	0.687	0.427	0.375	0.488	0.503	0.438	0.349	0.379
NCI-H2170	1.01	0.881	0.735	0.365	0.345	0.59	0.517	0.295	0.189	0.191	0.794	0.732	0.485	0.349	0.239	0.438	0.437	0.471	0.407	0.341
NCI-H2228	1.29	0.757	0.378	0.201	0.213	0.804	0.86	0.24	0.18	0.244	0.222	0.296	0.155	0.143	0.158	0.307	0.205	0.188	0.133	0.212
NCI-H2347	1.14	0.942	0.911	0.5	0.48	0.859	0.595	0.453	0.339	0.24	0.543	0.515	0.519	0.305	0.252	0.381	0.283	0.338	0.178	0.205
NCI-H2405	0.999	1	0.797	0.406	0.407	0.939	0.93	0.708	0.392	0.291	0.812	0.815	0.676	0.448	0.344	0.399	0.368	0.341	0.302	0.275
NCI-H3122	1.06	1.11	0.846	0.457	0.311	1.13	1.05	0.687	0.435	0.348	0.465	0.375	0.315	0.178	0.132	0.444	0.425	0.428	0.233	0.204
PC-3 [JPC-3]	1.08	1.11	0.931	0.957	0.609	0.83	0.847	0.775	0.575	0.421	0.864	0.993	0.978	0.614	0.431	0.464	0.479	0.47	0.464	0.456
PC-14	1.23	1.09	0.715	0.286	0.178	1.15	1.16	1.02	0.405	0.351	0.834	0.762	0.535	0.109	0.0948	0.857	0.595	0.284	0.216	0.167
RERF-LC-KJ	1.05	0.942	0.822	0.458	0.414	0.925	0.838	0.586	0.428	0.333	0.519	0.556	0.421	0.333	0.299	0.374	0.378	0.383	0.303	0.303
SK-LU-1	1.05	0.82	0.628	0.388	0.366	1.16	0.788	1.23	0.526	0.332	0.311	0.333	0.287	0.217	0.213	0.526	0.436	0.288	0.247	0.226
SK-MES-1	0.967	0.892	0.809	0.408	0.289	1.05	1.25	0.818	0.404	0.342	0.904	0.837	0.625	0.434	0.274	0.658	0.645	0.608	0.311	0.216
SW 1573	1.05	0.751	0.704	0.326	0.203	0.869	0.855	0.646	0.304	0.21	0.174	0.229	0.241	0.155	0.135	0.324	0.218	0.193	0.163	0.14
UMC-11	0.942	0.711	0.607	0.345	0.322	0.295	0.277	0.248	0.173	0.134	0.196	0.224	0.208	0.2	0.211	0.353	0.311	0.311	0.264	0.213
